# Test results reported in article PMC10712727, “Safety, Tolerability, and Pharmacokinetics of Senaparib, a Novel PARP1/2 Inhibitor, in Chinese Patients With Advanced Solid Tumors: A Phase I Trial” (The Oncologist, 2023).
# Experiment: Plasma pharmacokinetics in continuous dosing period, cycle 1 day 15 steady state (HPLC-MS/MS)
# Assay type: in vivo, human
# Settings: for Rac, accumulation ratio (mean±SD) / Vss/F (mean±SD): cycle 1 day 15
# Experimental: Dose escalation was conducted using a modified Fibonacci 3 + 3 method (Supplementary Fig. […] At a given dose level, each patient received a single dose of senaparib followed by a 7-day washout period. They then entered a continuous dosing period to confirm the safety and PK profile, in which they received senaparib QD from day 1 to day 21 of each 3-week cycle. Progression to the next higher dose required approval from the Data Safety Monitoring Committee (DSMC) upon review of the safety and PK data of the previous dose. A 50-mg twice-daily (BID) dosing group was added (planned enrollment, n = 6 patients) based on a DSMC review of the safety, PK, and efficacy analysis of the completed QD dose groups in the phase I clinical trial of senaparib dose escalation in Australia (NCT03507543), which commenced prior to the start of this trial. Safety was assessed by recording the incidence of dose-limiting toxicities (DLTs), and the incidence, nature, severity (graded per National Cancer Institute Common Terminology Criteria for Adverse Events version 4.03 [NCI CTCAE v4.03][18]), and relatedness of treatment-emergent adverse events (TEAEs). DLTs were predefined toxicities (Supplementary Table S2) recorded over the 7 days following the single-dose administration of senaparib and during the first treatment cycle (day 1-day 21) for each dose group in the dose-escalation period only. […] Senaparib PK parameters were derived from blood samples collected from patients after the single administration, and at regular intervals during the first cycle of the dose-escalation and dose-expansion periods. Plasma concentrations of senaparib were determined using high-performance liquid chromatography-tandem mass spectrometry. […] There was no formal sample size calculation based on statistical hypothesis testing for this study; the planned enrolment was approximately 30-60 patients across the dose-escalation and dose-expansion cohorts. The actual number in the dose-escalation cohort was adjusted based on the number of dose cohorts required for the modified Fibonacci dose-escalation design and the determined MTD. Definitions for all analysis populations (safety, DLT, PK, and efficacy [intent-to-treat, ITT]) are provided in Supplementary Table S2. No statistical tests were performed; patient demographic and baseline characteristics, safety/tolerability, PK parameters, and efficacy were evaluated descriptively. ORR and DCR and their 95% CIs were calculated for each group using the exact probability method. Kaplan-Meier statistics were used to estimate DOR and PFS, and their 95% CIs for each dose group separately. Dose linearity was explored based on the single-dose data of area under the time-concentration curve (AUC) and maximum plasma concentration (Cmax) using the power model (Y = α × dose β) for the dose range 2-80 mg on a log-transformed scale. The following criterion was used to determine whether dose proportionality was met: if the (2-sided) 90% CI for β was wholly contained within the interval (1 + log(0.5)/log(r), 1 + log(2)/log(r)), then dose proportionality was supported. Here, r was defined as the ratio of the highest to lowest dose. All data analyses were carried out using SAS EG7.1 or higher or (for PK parameters) WinNonlin 7.0 or higher.
structure (smiles),measurement,setting,value
O=C(c1cc(Cn2c(=O)[nH]c(=O)c3c(F)cccc32)ccc1F)N1CCN(c2ncccn2)CC1 [Senaparib],"Rac, accumulation ratio (mean±SD)",2 mg QD (n/N = 1/1),1.5
same,Vss/F (mean±SD),2 mg QD (n/N = 1/1),16.6 L
same,"Rac, accumulation ratio (mean±SD)",5 mg QD (n/N = 3/3),1.4±0.4
same,Vss/F (mean±SD),5 mg QD (n/N = 3/3),19.8 ± 7.7 L
same,"Rac, accumulation ratio (mean±SD)",10 mg QD (n/N = 3/3),1.4±0.2
same,Vss/F (mean±SD),10 mg QD (n/N = 3/3),24.9 ± 4.3 L
same,"Rac, accumulation ratio (mean±SD)",20 mg QD (n/N = 5/5),1.2±0.2
same,Vss/F (mean±SD),20 mg QD (n/N = 5/5),18.1 ± 2.5 L
same,"Rac, accumulation ratio (mean±SD)",40 mg QD (n/N = 3/3),1.1±0.1
same,"Rac, accumulation ratio (mean±SD)",50 mg BID (n/N = 4/4),1.8±0.4
same,Vss/F (mean±SD),50 mg BID (n/N = 4/4),39.9 ± 3.4 L
same,"Rac, accumulation ratio (mean±SD)",60 mg QD (n/N = 5/5),1.1±0.0
same,Vss/F (mean±SD),60 mg QD (n/N = 5/5),32.1 ± 13.0 L
same,"Rac, accumulation ratio (mean±SD)",80 mg QD (n/N = 9/9),1.2±0.1
same,Vss/F (mean±SD),80 mg QD (n/N = 9/9),38.8 ± 23.5 L
same,"Rac, accumulation ratio (mean±SD)",100 mg QD (n/N = 20/20),1.2±0.1
same,Vss/F (mean±SD),100 mg QD (n/N = 20/20),40.1 ± 21.9 L
same,"Rac, accumulation ratio (mean±SD)",120 mg QD (n/N = 4/4),1.2±0.2
same,Vss/F (mean±SD),120 mg QD (n/N = 4/4),1.3 ± 39.5 L
same,Accumulation ratio (Rac),after BID administration,1.8
same,Accumulation ratio (mean Rac),after repeated QD administration,1.1-1.5
same,AUC from time zero to 24 h post dose,"human, in vivo",approximately 35 918 h*ng/mL
same,AUC from time zero to the last measurable concentration,"human, in vivo",33 827 h*ng/mL
same,"AUC0-inf, mean±SD","human, in vivo, 2 mg",4361.8 ng·h/mL
same,"AUC0-t, mean±SD","human, in vivo, 2 mg",2753.5 ng·h/mL
same,CLss/F (mean±SD),"human, in vivo, 2 mg",0.7 L/h
same,"Cmax, mean±SD","human, in vivo, 2 mg",203.0 ng/mL
same,"Tmax, median (range)","human, in vivo, 2 mg",2.0 (2.0-2.0) h
same,"t½, median (range)","human, in vivo, 2 mg",16.0 (16.0-16.0) h
same,"AUC0-inf, mean±SD","human, in vivo, 5 mg",9655.4±11 022.2 h*ng/mL
same,"AUC0-t, mean±SD","human, in vivo, 5 mg",6013.7 ± 5649.0 ng·h/mL
same,CLss/F (mean±SD),"human, in vivo, 5 mg",1.6 ± 1.3 L/h
same,"Cmax, mean±SD","human, in vivo, 5 mg",470.7 ± 354.0 ng/mL
same,"Tmax, median (range)","human, in vivo, 5 mg",2.0 (2.0-2.0) h
same,"t½, median (range)","human, in vivo, 5 mg",10.3 (6.4-21.4) h
same,"AUC0-inf, mean±SD","human, in vivo, 10 mg",10 553.4±2657.5 h*ng/mL
same,"AUC0-t, mean±SD","human, in vivo, 10 mg",7506.4 ± 892.6 ng·h/mL
same,CLss/F (mean±SD),"human, in vivo, 10 mg",1.3 ± 0.2 L/h
same,"Cmax, mean±SD","human, in vivo, 10 mg",598.7 ± 67.9 ng/mL
same,"Tmax, median (range)","human, in vivo, 10 mg",4.0 (2.0-4.0) h
same,"t½, median (range)","human, in vivo, 10 mg",13.2 (9.4-16.8) h
same,"AUC0-inf, mean±SD","human, in vivo, 20 mg",22 122.4±18 526.0 h*ng/mL
same,"AUC0-t, mean±SD","human, in vivo, 20 mg",16 213.5±9863.9 h*ng/mL
same,CLss/F (mean±SD),"human, in vivo, 20 mg",1.6 ± 0.8 L/h
same,"Cmax, mean±SD","human, in vivo, 20 mg",1483.2 ± 487.8 ng/mL
same,"Tmax, median (range)","human, in vivo, 20 mg",2.0 (1.8-2.0) h
same,"t½, median (range)","human, in vivo, 20 mg",9.4 (5.5-17.5) h
same,"AUC0-inf, mean±SD","human, in vivo, 40 mg",22 437.1±5342.9 h*ng/mL
same,"AUC0-t, mean±SD","human, in vivo, 40 mg",19 566.5±3285.1 h*ng/mL
same,CLss/F (mean±SD),"human, in vivo, 40 mg",2.1 ± 0.4 L/h
same,"Cmax, mean±SD","human, in vivo, 40 mg",2013.3 ± 280.2 ng/mL
same,"Tmax, median (range)","human, in vivo, 40 mg",1.9 (1.8-2.0) h
same,"t½, median (range)","human, in vivo, 40 mg",7.5 (5.5-9.2) h
same,"AUC0-inf, mean±SD","human, in vivo, 50 mg",38 418.9±19 776.1 h*ng/mL
same,"AUC0-t, mean±SD","human, in vivo, 50 mg",17 959.6±5287.0 h*ng/mL
same,CLss/F (mean±SD),"human, in vivo, 50 mg",2.8 ± 0.8 L/h
same,"Cmax, mean±SD","human, in vivo, 50 mg",2152.5 ± 354.3 ng/mL
same,"Tmax, median (range)","human, in vivo, 50 mg",2.0 (1.9-3.7) h
same,"t½, median (range)","human, in vivo, 50 mg",9.7 (7.8-15.2) h
same,"AUC0-inf, mean±SD","human, in vivo, 60 mg",19 189.5±10 074.3 h*ng/mL
same,"AUC0-t, mean±SD","human, in vivo, 60 mg",17 777.2±8739.1 h*ng/mL
same,CLss/F (mean±SD),"human, in vivo, 60 mg",4.6 ± 3.6 L/h
same,"Cmax, mean±SD","human, in vivo, 60 mg",2056.0 ± 975.0 ng/mL
same,"Tmax, median (range)","human, in vivo, 60 mg",2.0 (1.9-3.9) h
same,"t½, median (range)","human, in vivo, 60 mg",5.8 (3.4-7.7) h
same,"AUC0-inf, mean±SD","human, in vivo, 80 mg",48 747.0±33 189.7 h*ng/mL
same,"AUC0-t, mean±SD","human, in vivo, 80 mg",37 727.0±21 476.1 h*ng/mL
same,CLss/F (mean±SD),"human, in vivo, 80 mg",2.9 ± 1.8 L/h
same,"Cmax, mean±SD","human, in vivo, 80 mg",3487.8 ± 1649.2 ng/mL
same,"Tmax, median (range)","human, in vivo, 80 mg",2.0 (1.9-3.8) h
same,"t½, median (range)","human, in vivo, 80 mg",9.7 (5.8-14.4) h
same,"AUC0-inf, mean±SD","human, in vivo, 100 mg",40 080.4±16 731.2 h*ng/mL
same,"AUC0-t, mean±SD","human, in vivo, 100 mg",33 827.1±12 273.6 h*ng/mL
same,CLss/F (mean±SD),"human, in vivo, 100 mg",3.5 ± 1.8 L/h
same,"Cmax, mean±SD","human, in vivo, 100 mg",3212.5 ± 765.1 ng/mL
same,"Tmax, median (range)","human, in vivo, 100 mg",1.9 (1.8-4.1) h
same,"t½, median (range)","human, in vivo, 100 mg",7.5 (5.3-16.1) h
same,"AUC0-inf, mean±SD","human, in vivo, 120 mg",87 799.1±11 6874.0 h*ng/mL
same,"AUC0-t, mean±SD","human, in vivo, 120 mg",62 737.2±74517.1 h*ng/mL
same,CLss/F (mean±SD),"human, in vivo, 120 mg",4.3 ± 3.3 L/h
same,"Cmax, mean±SD","human, in vivo, 120 mg",5107.5 ± 4893.2 ng/mL
same,"Tmax, median (range)","human, in vivo, 120 mg",2.0 (1.9-2.1) h
same,"t½, median (range)","human, in vivo, 120 mg",8.8 (6.0-15.2) h
